Data as given in patent US10294202B2, “Pyrrolidinones as herbicides” (FMC Corporation, priority 2013, dated 2019).

Tests used:
ryegrass, Italian = test: Test A pre-/postemergence herbicide test; format: in vivo, Lolium multiflorum; details: for Plant response rating, Ryegrass, Italian: 0 to 100 scale
Outline: (§1)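 Seeds sown in loam soil/sand blend received a preemergence directed soil spray of test chemical in non-phytotoxic solvent with surfactant; postemergence plants (2–10 cm, one- to two-leaf stage) were sprayed with the same formulation. After about 10 days in greenhouse, injury was rated visually versus untreated controls, 0 (no effect) to 100 (complete control).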

pigweed = test: Test A pre-/postemergence herbicide test; format: in vivo, Amaranthus retroflexus; details: for Plant response rating, Pigweed: 0 to 100 scale
Outline: as §1

ragweed = test: Test A pre-/postemergence herbicide test; format: in vivo, Ambrosia elatior; details: for Plant response rating, Ragweed: 0 to 100 scale
Outline: as §1

ducksalad = test: Test C flooded paddy test; format: in vivo, Heteranthera limosa; details: Flood
Outline: (§2)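 2-leaf stage; flood 3 cm over soil; compound into paddy water; depth held; greenhouse 13–15 d; visual % control vs untreated (0 = none, 100 = complete); "-" = not tested.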

kochia = test: Test A pre-/postemergence herbicide test; format: in vivo, Kochia scoparia; details: for Plant response rating, Kochia: 0 to 100 scale
Outline: as §1

giant foxtail = test: Test A pre-/postemergence herbicide test; format: in vivo, Setaria faberii; details: for Plant response rating, Foxtail, Giant: 0 to 100 scale
Outline: as §1

galium = test: Test A postemergence herbicide test; format: in vivo, Galium aparine; details: for Plant response rating, Galium: 125 g ai/ha, 0 to 100 scale; for Galium plant response rating (0 to 100 scale, 0 is no effect, 100 is complete control): 500 g ai/ha
Outline: (§3)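 Plants at the one- to two-leaf stage, 2–10 cm tall, grown in loam/sand pots, received postemergence sprays of the test chemicals. After about 10 days in the greenhouse, injury was scored visually against untreated controls on a 0–100 scale (0 none, 100 complete control).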

corn = test: Test A pre-/postemergence herbicide test; format: in vivo, Zea mays; details: Postemergence
Outline: as §1

sedge, umbrella = test: Test C flooded paddy test; format: in vivo, Cyperus difformis; details: Flood
Outline: as §2

rice = test: Test C flooded paddy test; format: in vivo, Oryza sativa; details: Flood
Outline: as §2

barnyardgrass [1] = test: Test C flooded paddy test; format: in vivo, Echinochloa crus-galli; details: Flood
Outline: as §2

barnyardgrass [2] = test: Test A pre-/postemergence herbicide test; format: in vivo, Echinochloa crus-galli
Outline: as §1

blackgrass = test: Test A postemergence herbicide test; format: in vivo, Alopecurus myosuroides
Outline: as §3

wheat = test: Test A pre-/postemergence herbicide test; format: in vivo, Triticum aestivum; details: Postemergence; for Plant response rating, Wheat: 125 g ai/ha, 0 to 100 scale; for Wheat plant response rating (0 to 100 scale, 0 is no effect, 100 is complete control): 500 g ai/ha
Outline: as §1

[3] = 125 g ai/ha, visual rating, 0 no effect, 100 complete control, approximately 10 days, preemergence
[4] = Postemergence, 125 g ai/ha, 0 is no effect, 100 is complete control
[5] = preemergence, 500 g ai/ha, 0 is no effect and 100 is complete control
[6] = 125 g ai/ha, scale of 0 to 100 where 0 is no effect and 100 is complete control, 13 to 15 days
[7] = 250 g ai/ha, scale of 0 to 100 where 0 is no effect and 100 is complete control, 13 to 15 days
[8] = 0 is no effect, 100 is complete control
[9] = 125 g ai/ha, 0 to 100 scale, 0 is no effect, 100 is complete control
[10] = Postemergence, 125 g ai/ha, 0 no effect, 100 complete control
[11] = Preemergence, 125 g ai/ha, visual rating on 0 to 100 scale (0 no effect, 100 complete control)
[12] = 0 no effect, 100 complete control
[13] = 125 g ai/ha, 0 to 100 scale, 0 no effect, 100 complete control
[14] = 500 g ai/ha, 0 to 100 scale (0 no effect, 100 complete control)

Compound: O=C1NCC(c2cccc(C(F)F)c2)C1C(=O)Nc1ccccc1C(F)(F)F (racemic) [Compound 212]
- Plant response rating, Ryegrass, Italian (ryegrass, Italian; [3]): 0
- Plant response rating, Ryegrass, Italian (ryegrass, Italian; [4]): 0
- Ryegrass, Italian plant response rating (0 to 100 scale, 0 is no effect, 100 is complete control) (ryegrass, Italian; Postemergence, 500 g ai/ha): 0
- Plant response rating, Ryegrass, Italian (ryegrass, Italian; [5]): 30
- Plant response rating, Pigweed (pigweed; [3]): 0
- Plant response rating, Pigweed (pigweed; [4]): 0
- Pigweed plant response rating (0 to 100 scale, 0 is no effect, 100 is complete control) (pigweed; Postemergence, 500 g ai/ha): 0
- Plant response rating, Pigweed (pigweed; [5]): 0
- Plant response rating, Ragweed (ragweed; [3]): 0
- Plant response rating, Ragweed (ragweed; [4]): 0
- Ragweed plant response rating (0 to 100 scale, 0 is no effect, 100 is complete control) (ragweed; Postemergence, 500 g ai/ha): 20
- Plant response rating, Ragweed (ragweed; [5]): 50
- Plant response rating, Ducksalad (ducksalad; [6]): 0
- Plant response rating, Ducksalad (ducksalad; [7]): 70
- Plant response rating, Ducksalad (ducksalad; 500 g ai/ha, scale 0 to 100): 75
- Plant response rating, Ducksalad (ducksalad; 1000 g ai/ha, scale 0 to 100): 100
- Plant response rating, Kochia (kochia; [3]): 0
- Plant response rating, Kochia (kochia; [4]): 0
- Kochia plant response rating (0 to 100 scale, 0 is no effect, 100 is complete control) (kochia; Postemergence, 500 g ai/ha): 20
- Plant response rating, Kochia (kochia; [5]): 20
- Plant response rating, Foxtail, Giant (giant foxtail; [3]): 70
- Plant response rating, Foxtail, Giant (giant foxtail; [4]): 60
- Foxtail, Giant plant response rating (0 to 100 scale, 0 is no effect, 100 is complete control) (giant foxtail; Postemergence, 500 g ai/ha): 90
- Plant response rating, Foxtail, Giant (giant foxtail; [5]): 90
- Plant response rating, Galium (galium; [8]): 50
- Galium plant response rating (0 to 100 scale, 0 is no effect, 100 is complete control) (galium): 60
- Plant response rating, Corn (corn; [9]): 0
- Corn plant response rating (0 to 100 scale, 0 is no effect, 100 is complete control) (corn; 500 g ai/ha): 50
- Plant response rating, Sedge, Umbrella (sedge, umbrella; [6]): 0
- Plant response rating, Sedge, Umbrella (sedge, umbrella; [7]): 0
- Plant response rating, Sedge, Umbrella (sedge, umbrella; 500 g ai/ha, scale 0 to 100): 0
- Plant response rating, Sedge, Umbrella (sedge, umbrella; 1000 g ai/ha, scale 0 to 100): 0
- Plant response rating, Rice (rice; [6]): 0
- Plant response rating, Rice (rice; [7]): 0
- Plant response rating, Rice (rice; 500 g ai/ha, scale 0 to 100): 0
- Plant response rating, Rice (rice; 1000 g ai/ha, scale 0 to 100): 0
- Plant response rating, Barnyardgrass (barnyardgrass [1]; [6]): 0
- Plant response rating, Barnyardgrass (barnyardgrass [1]; [7]): 15
- Plant response rating, Barnyardgrass (barnyardgrass [1]; 500 g ai/ha, scale 0 to 100): 40
- Plant response rating, Barnyardgrass (barnyardgrass [1]; 1000 g ai/ha, scale 0 to 100): 65
- Plant response rating, Barnyardgrass (barnyardgrass [2]; 125 g ai/ha, visual rating, 0 to 100 scale, 0 no effect, 100 complete control, approximately 10 days, preemergence): 60
- Plant response rating, Barnyardgrass (barnyardgrass [2]; Postemergence, 125 g ai/ha, 0 to 100 scale, 0 is no effect, 100 is complete control): 60
- Barnyardgrass plant response rating (0 to 100 scale, 0 is no effect, 100 is complete control) (barnyardgrass [2]; Postemergence, 500 g ai/ha): 90
- Plant response rating, Barnyardgrass (barnyardgrass [2]; preemergence, 500 g ai/ha, 0 to 100 scale, 0 is no effect and 100 is complete control): 90
- Plant response rating, Blackgrass (blackgrass; [9]): 40
- Blackgrass plant response rating (0 to 100 scale, 0 is no effect, 100 is complete control) (blackgrass; 500 g ai/ha): 60
- Plant response rating, Wheat (wheat; [8]): 0
- Wheat plant response rating (0 to 100 scale, 0 is no effect, 100 is complete control) (wheat): 70

Compound: O=C1NCC(c2cccc(C(F)(F)F)c2)C1C(=O)Nc1nnc(C(F)(F)F)s1 (racemic) [Compound 112]
- Plant response rating, Ryegrass, Italian (ryegrass, Italian; [10]): 0
- Ryegrass, Italian plant response rating (0 to 100 scale, 0 is no effect, 100 is complete control) (ryegrass, Italian; Postemergence, 500 g ai/ha): 0
- Ryegrass, Italian plant response rating (ryegrass, Italian; [11]): 0
- Plant response rating, Ryegrass, Italian (ryegrass, Italian; preemergence, 500 g ai/ha): 0
- Plant response rating, Pigweed (pigweed; [10]): 0
- Pigweed plant response rating (0 to 100 scale, 0 is no effect, 100 is complete control) (pigweed; Postemergence, 500 g ai/ha): 0
- Pigweed plant response rating (pigweed; [11]): 0
- Plant response rating, Pigweed (pigweed; preemergence, 500 g ai/ha): 0
- Plant response rating, Ragweed (ragweed; [10]): 0
- Ragweed plant response rating (0 to 100 scale, 0 is no effect, 100 is complete control) (ragweed; Postemergence, 500 g ai/ha): 0
- Ragweed plant response rating (ragweed; [11]): 0
- Plant response rating, Ragweed (ragweed; preemergence, 500 g ai/ha): 0
- Plant response rating, Ducksalad (ducksalad; [6]): 0
- Plant response rating, Ducksalad (ducksalad; 250 g ai/ha, scale 0 to 100): 0
- Plant response rating, Ducksalad (ducksalad; 500 g ai/ha, scale 0 to 100): 0
- Plant response rating, Ducksalad (ducksalad; 1000 g ai/ha, scale 0 to 100): 0
- Plant response rating, Kochia (kochia; [10]): 0
- Kochia plant response rating (0 to 100 scale, 0 is no effect, 100 is complete control) (kochia; Postemergence, 500 g ai/ha): 0
- Kochia plant response rating (kochia; [11]): 0
- Plant response rating, Kochia (kochia; preemergence, 500 g ai/ha): 0
- Plant response rating, Foxtail, Giant (giant foxtail; [10]): 0
- Foxtail, Giant plant response rating (0 to 100 scale, 0 is no effect, 100 is complete control) (giant foxtail; Postemergence, 500 g ai/ha): 0
- Foxtail, Giant plant response rating (giant foxtail; [11]): 0
- Plant response rating, Foxtail, Giant (giant foxtail; preemergence, 500 g ai/ha): 0
- Plant response rating, Galium (galium; [12]): 0
- Galium plant response rating (0 to 100 scale, 0 is no effect, 100 is complete control) (galium): 0
- Plant response rating, Corn (corn; [13]): 0
- Plant response rating, Corn (corn; [14]): 0
- Plant response rating, Sedge, Umbrella (sedge, umbrella; [6]): 0
- Plant response rating, Sedge, Umbrella (sedge, umbrella; 250 g ai/ha, scale 0 to 100): 0
- Plant response rating, Sedge, Umbrella (sedge, umbrella; 500 g ai/ha, scale 0 to 100): 0
- Plant response rating, Sedge, Umbrella (sedge, umbrella; 1000 g ai/ha, scale 0 to 100): 0
- Plant response rating, Rice (rice; [6]): 0
- Plant response rating, Rice (rice; 250 g ai/ha, scale 0 to 100): 0
- Plant response rating, Rice (rice; 500 g ai/ha, scale 0 to 100): 0
- Plant response rating, Rice (rice; 1000 g ai/ha, scale 0 to 100): 0
- Plant response rating, Barnyardgrass (barnyardgrass [1]; [6]): 0
- Plant response rating, Barnyardgrass (barnyardgrass [1]; 250 g ai/ha, scale 0 to 100): 0
- Plant response rating, Barnyardgrass (barnyardgrass [1]; 500 g ai/ha, scale 0 to 100): 0
- Plant response rating, Barnyardgrass (barnyardgrass [1]; 1000 g ai/ha, scale 0 to 100): 0
- Plant response rating, Barnyardgrass (barnyardgrass [2]; Postemergence, 125 g ai/ha, 0 to 100 scale, 0 no effect, 100 complete control): 0
- Plant response rating, Barnyardgrass (barnyardgrass [2]; Postemergence, 500 g ai/ha, 0 to 100 scale (0 no effect, 100 complete control)): 0
- Barnyardgrass plant response rating (barnyardgrass [2]; [11]): 0
- Plant response rating, Barnyardgrass (barnyardgrass [2]; preemergence, 500 g ai/ha, 0 to 100 scale (0 no effect, 100 complete control)): 0
- Plant response rating, Blackgrass (blackgrass; [13]): 0
- Plant response rating, Blackgrass (blackgrass; [14]): 0
- Plant response rating, Wheat (wheat; [12]): 0
- Wheat plant response rating (0 to 100 scale, 0 is no effect, 100 is complete control) (wheat): 0
